Results published in ChEMBL document CHEMBL3132807, “Chemical motifs that redox cycle and their associated toxicity” (Medchemcomm, 2013).

Key:
[1] = Cytotoxicity against human THLE cells assessed as ATP depletion after 72 hrs by CellTitre-Glo assay; type: functional, cell-based
[2] = Cytotoxicity against human THLE cells assessed as ATP depletion after 4 hrs by CellTitre-Glo assay; type: functional, cell-based
[3] = Cytotoxicity against human THLE cells assessed as ATP depletion after 24 hrs by CellTitre-Glo assay; type: functional, cell-based
THLE = assay: Cytotoxicity against human THLE cells assessed as ATP depletion by CellTitre-Glo assay; type: functional, cell-based; conditions: TDE = time-dependent effect
[4] = Induction of ROS generation assessed as generation of H2O2 measured as oxidation of phenol red after 60 mins by phenol red assay; type: physicochemical

Cn1ncnc2c(=O)n(C)c(=O)nc1-2 gave an EC50 [1] of 3.2 µM, an EC50 [2] of 2.7 µM and an EC50 [3] of 2.1 µM. The Activity (THLE) was “tde” and the EC50 at 60 min [4] was 1 µM.
COc1cccc2c1C(=O)c1c(O)c3c(c(O)c1C2=O)C[C@@](O)(C(=O)CO)C[C@@H]3O[C@H]1C[C@H](N)[C@H](O)[C@H](C)O1 [DOXORUBICIN] gave an EC50 [1] of 0.53 µM, an EC50 [2] of 215 µM and an EC50 [3] of 1.8 µM. The Activity (THLE) was “tde” and the EC50 at 60 min [4] was 179 µM.
CCCCCc1ccc(/C=C2\C(=O)NC(=O)C3=C2CCCC3)cc1 gave an EC50 at 60 min [4] of 9.2 µM.
CCCc1nc2c(=O)n(C)c(=O)nc-2n(C)n1 gave an EC50 [1] of 13 µM, an EC50 [2] of 16.5 µM and an EC50 [3] of 9.1 µM. For the same compound, the Activity (THLE) was “tde” and the EC50 at 60 min [4] was 1 µM.
Compound O=C1NC(=O)/C(=C\c2ccc(O)cc2)C2=C1CCCC2 has an EC50 at 60 min [4] of 8.6 µM.
In the case of Cc1c2cc3c(ccc4ccccc43)oc-2nc(=O)c1C#N, the EC50 [1] is reported as greater than 300 µM, the EC50 [2] is reported as greater than 300 µM and the EC50 [3] is reported as greater than 300 µM. For the same compound, the Activity (THLE) was “tde” and the EC50 at 60 min [4] was 11 µM.
For O=C1NC(=O)/C(=C\c2ccco2)C2=C1CCCC2, the EC50 at 60 min [4] was 18 µM.
Compound Cn1nc(-c2cccs2)nc2c(=O)n(C)c(=O)nc1-2 has an EC50 [1] of 3.1 µM, an EC50 [2] of 2.4 µM and an EC50 [3] of 2.9 µM. For the same compound, the Activity (THLE) was “tde” and the EC50 at 60 min [4] was 2 µM.
Compound O=C1NC(=O)/C(=C\c2ccc(Cl)cc2Cl)C2=C1CCCC2 has an EC50 at 60 min [4] of 236 µM.
Nc1ccc2nc3c(=O)[nH]c(=O)nc-3[nH]c2c1 showed an EC50 [1] of 245 µM, an EC50 [2] of 264 µM and an EC50 [3] of 250 µM. For the same compound, the Activity (THLE) was “tde” and the EC50 at 60 min [4] was 110 µM.
With O=C1NC(=O)/C(=C\c2ccc(Cl)cc2)C2=C1CCCC2 the EC50 at 60 min [4] was 0.5 µM.
Cn1nc(-c2ccccc2)cc2c(=O)n(C)c(=O)nc1-2 showed an EC50 [1] greater than 300 µM, an EC50 [2] greater than 300 µM and an EC50 [3] greater than 300 µM. The Activity (THLE) was “tde” and the EC50 at 60 min [4] was greater than 1000 µM.
Compound Cn1nc(-c2cccnc2)nc2c(=O)n(C)c(=O)nc1-2 has an EC50 [1] of 2 µM, an EC50 [2] of 5.2 µM and an EC50 [3] of 2.1 µM. For the same compound, the Activity (THLE) was “tde” and the EC50 at 60 min [4] was 1 µM.
With Cn1nc(/C=C/c2ccccc2)nc2c(=O)n(C)c(=O)nc1-2 the EC50 [1] was 1.7 µM, the EC50 [2] was 1.3 µM and the EC50 [3] was 1.2 µM. The Activity (THLE) was “tde” and the EC50 at 60 min [4] was 1 µM.
With COc1cc(/C=C2\C(=O)NC(=O)C3=C2CCCC3)cc(OC)c1OC the EC50 at 60 min [4] was 0.5 µM.
For Cc1cc2nc3c(=O)[nH]c(=O)nc-3n(C[C@H](O)[C@H](O)[C@H](O)CO)c2cc1C [RIBOFLAVIN], the EC50 [1] was greater than 300 µM, the EC50 [2] was greater than 300 µM and the EC50 [3] was greater than 300 µM. The Activity (THLE) was “tde” and the EC50 at 60 min [4] was 129 µM.
Compound O=C1NC(=O)/C(=C\c2ccncc2)C2=C1CCCC2 has an EC50 at 60 min [4] of 95 µM.
CCOc1ccc2nc3c(=O)n(C)c(=O)nc-3sc2c1 gave an EC50 [1] of 68 µM, an EC50 [2] of 46 µM and an EC50 [3] of 79 µM. For the same compound, the Activity (THLE) was “tde” and the EC50 at 60 min [4] was 70 µM.
O=c1nc2[nH]c3ccccc3nc-2c(=O)[nH]1 [ALLOXAZINE] showed an EC50 at 60 min [4] of 226 µM.
In the case of Cn1nc(-c2ccc([N+](=O)[O-])cc2)nc2c(=O)n(C)c(=O)nc1-2, the EC50 [1] is reported as 3.2 µM, the EC50 [2] is reported as 5.2 µM and the EC50 [3] is reported as 2.9 µM. The Activity (THLE) was “tde” and the EC50 at 60 min [4] was 1 µM.
With C[n+]1cc2c3c(ccc2c2ccc4cc5c(cc4c21)OCO5)OCO3 [SANGUINARIUM] the EC50 [1] was 0.93 µM, the EC50 [2] was 1 µM and the EC50 [3] was 0.89 µM. The Activity (THLE) was “tde” and the EC50 at 60 min [4] was 513 µM.
O=c1[nH]c(=O)c2nccnc2[nH]1 showed an EC50 [1] greater than 300 µM, an EC50 [2] greater than 300 µM and an EC50 [3] greater than 300 µM. The Activity (THLE) was “tde” and the EC50 at 60 min [4] was 713 µM.
Work on C[n+]1ccc(-c2cc[n+](C)cc2)cc1 [PARAQUAT] yielded an EC50 [1] greater than 300 µM, an EC50 [2] greater than 300 µM and an EC50 [3] greater than 300 µM. The Activity (THLE) was “tde” and the EC50 at 60 min [4] was greater than 1000 µM.
Work on O=C1NC(=O)/C(=C\c2ccccc2)C2=C1CCC2 yielded an EC50 [1] greater than 300 µM, an EC50 [2] greater than 300 µM and an EC50 [3] greater than 300 µM. For the same compound, the Activity (THLE) was “tde” and the EC50 at 60 min [4] was 233 µM.
Compound O=C1NC(=O)/C(=C\c2ccc(C3CCCCC3)cc2)C2=C1CCCC2 has an EC50 at 60 min [4] of 121 µM.
O=c1[nH]c(=O)c2nc3ccccc3nc2[nH]1 [ALLOXAZINE] gave an EC50 [1] greater than 300 µM, an EC50 [2] greater than 300 µM and an EC50 [3] greater than 300 µM. The Activity (THLE) was “tde”.
Cn1c(=O)nc2sc3ccccc3nc-2c1=O showed an EC50 [1] of 8.2 µM, an EC50 [2] of 10.6 µM and an EC50 [3] of 9.9 µM. For the same compound, the Activity (THLE) was “tde” and the EC50 at 60 min [4] was 151 µM.
In the case of CC(=O)N/C=C1/C(=O)NC(=O)C(C#N)=C1C, the EC50 at 60 min [4] is reported as 250 µM.
Compound CCn1cc(C(=O)O)c(=O)c2ccc(C)nc21 [NALIDIXIC ACID] has an EC50 [1] greater than 300 µM, an EC50 [2] greater than 300 µM and an EC50 [3] greater than 300 µM. For the same compound, the Activity (THLE) was “tde” and the EC50 at 60 min [4] was greater than 1000 µM.
O=C1C=C(Cl)C(=O)c2ccccc21 gave an EC50 [1] of 37.4 µM, an EC50 [2] of 21.1 µM and an EC50 [3] of 13.8 µM. For the same compound, the Activity (THLE) was “tde” and the EC50 at 60 min [4] was 2.5 µM.
Work on O=C1NC(=O)/C(=C\c2ccccc2)C2=C1CCCC2 [TESIMIDE] yielded an EC50 [1] greater than 300 µM, an EC50 [2] greater than 300 µM and an EC50 [3] greater than 300 µM. For the same compound, the Activity (THLE) was “tde” and the EC50 at 60 min [4] was 26 µM.
With O=C1NC(=O)/C(=C\c2ccc(F)cc2)C2=C1CCCC2 the EC50 at 60 min [4] was 60 µM.
For Cn1nc(-c2ccccc2)nc2c(=O)n(C)c(=O)nc1-2, the EC50 [1] was 7.4 µM, the EC50 [2] was 9 µM and the EC50 [3] was 4.5 µM. For the same compound, the Activity (THLE) was “tde” and the EC50 at 60 min [4] was 2 µM.
Work on CC1=C(C)C(=O)c2ccccc2C1=O yielded an EC50 [1] of 21.1 µM, an EC50 [2] of 40.9 µM and an EC50 [3] of 23.1 µM. For the same compound, the Activity (THLE) was “tde” and the EC50 at 60 min [4] was 110 µM.
Cn1nc(-c2ccncc2)nc2c(=O)n(C)c(=O)nc1-2 gave an EC50 [1] of 3.1 µM, an EC50 [2] of 11.7 µM and an EC50 [3] of 5.8 µM. For the same compound, the Activity (THLE) was “tde” and the EC50 at 60 min [4] was 1 µM.
In the case of Cn1nc(/C=C\c2ccccc2)nc2c(=O)n(C)c(=O)nc1-2, the EC50 [1] is reported as 6.8 µM, the EC50 [2] is reported as 4.8 µM and the EC50 [3] is reported as 5.9 µM. The Activity (THLE) was “tde” and the EC50 at 60 min [4] was 1 µM.
For NC(=O)N1C(=O)/C(=C(\O)c2ccc(F)s2)c2cc(F)c(Cl)cc21, the EC50 [1] was 108 µM, the EC50 [2] was greater than 300 µM and the EC50 [3] was 175 µM. The Activity (THLE) was “tde” and the EC50 at 60 min [4] was 833 µM.
In the case of NC(=O)N1C(=O)/C(=C(\O)c2ccc(Cl)s2)c2cc(Cl)ccc21, the EC50 [1] is reported as 117 µM, the EC50 [2] is reported as greater than 300 µM and the EC50 [3] is reported as 253 µM. For the same compound, the Activity (THLE) was “tde” and the EC50 at 60 min [4] was 667 µM.
Work on O=C1NC(=O)/C(=C\c2ccc(C(=O)O)cc2)C2=C1CCCC2 yielded an EC50 at 60 min [4] of 53 µM.
CCn1cc(C(=O)O)c(=O)c2cc(F)c(N3CCNCC3)cc21 [NORFLOXACIN] showed an EC50 [1] greater than 300 µM, an EC50 [2] greater than 300 µM and an EC50 [3] greater than 300 µM. The Activity (THLE) was “tde” and the EC50 at 60 min [4] was greater than 1000 µM.
In the case of Cc1cc(C)n(C)c2cccc(=O)c1-2, the EC50 [1] is reported as greater than 300 µM, the EC50 [2] is reported as greater than 300 µM and the EC50 [3] is reported as greater than 300 µM. The Activity (THLE) was “tde” and the EC50 at 60 min [4] was 33 µM.
Work on CC1=CC(=O)c2ccccc2C1=O [MENADIONE] yielded an EC50 [1] of 17.7 µM, an EC50 [2] of 94 µM and an EC50 [3] of 27.5 µM. For the same compound, the Activity (THLE) was “tde” and the EC50 at 60 min [4] was 29 µM.
Compound COc1ccc(-c2nc3c(=O)n(C)c(=O)nc-3n(C)n2)cc1 has an EC50 [1] of 7.2 µM, an EC50 [2] of 9.6 µM and an EC50 [3] of 6 µM. The Activity (THLE) was “tde” and the EC50 at 60 min [4] was 2 µM.
